Source: PubChem BioAssay AID1919000 (Molecular Pharmacology Branch, DTP, NCI, 2023)
Several values for one entry are separate records, joined by “and”; a condition that tells them apart may be missing. Identical values can stand only once.

Test system: 653999-131-R-J2-PDC complex spheroids, growth % test/control
Assay: Anticancer human tumor 653999-131-R-J2-PDC patient-derived lung adenocarcinoma cell line growth inhibition [AhR]
Settings: for viability, T/C: stronger effect = lower value
From the text: Multicellular complex tumor spheroid response to aryl hydrocarbon receptor antagonists in combination with a variety of drugs and investigational agents in selected tumor cell lines
The current study was undertaken to assess response to aryl hydrocarbon receptor antagonists in combination with standard-of-care drugs and investigational agents in solid tumor complex spheroid models. Complex spheroids include a stromal component modeled by human endothelial cells (HUVEC) and fibroblasts modeled by human mesenchymal stem cells (MSCs). The concentration ranges selected for each drug and investigational agent were based upon clinically achievable concentrations if the clinical Cmax of the agent was known.
Compounds. The drugs and investigational agents: BAY 2416964 (NSC825713), GNF351 (NSC835774), CH-223191 (NSC835775), CPI-455 (NSC825282), aza-TdCyd (NSC777586), decitabine (NSC127716), belinostat (NSC758774), entinostat (NSC756642), pevonedistat (NSC761192), tazemetostat (NSC777109), talazoparib (NSC765396), olaparib (NSC753686), selinexor (NSC780203), nedisertib (M3814, NSC802822), bortezomib (NSC756655), venetoclax (NSC766270), doxorubicin (NSC123127), elimusertib (BAY189344, NSC800525), ceralasertib (AZD6738, NSC777638), TAK-243 (NSC785004), alisertib (NSC759677), etoposide (NSC141540), topotecan (NSC609699), eribulin (NSC707389), gemcitabine (NSC613327), carboplatin (NSC241240), cisplatin (NSC119875), and SN-38 (NSC673596) were obtained from the National Cancer Institute (NCI) Developmental Therapeutics Program Chemical Repository (32). The FDA-approved anticancer drug set is available from the Developmental Therapeutics Program at https://dtp.cancer.gov/organization/dscb/obtaining/available plates.htm. […] The stock solutions were prepared in dimethyl sulfoxide (DMSO, Sigma-Aldrich, St. Louis, MO, cat. D2650), except for the platinum compounds which were prepared in saline (Quality Biological, Gaithersburg, MD, cat. 114-055-101), at 800-fold the tested concentration and stored at -70 degrees C prior to their use. All drugs and investigational agents were tested over a range starting from a high concentration at or near the clinical Cmax and decreasing in half-log increments. If the clinical Cmax for an agent had not been determined, the highest concentration tested was 10 microM (Table 1).
Cell Culture. All cells were maintained in an incubator at 37 degrees C and 5% CO2 with 95% humidity. The PDC lines were cultured according to standard operating procedures established by the NCI PDMR (https://pdmr.cancer.gov). Briefly, all PDCs were thawed and cultured in Matrigel-coated flasks prepared with a working solution of 1X Ham's F-12 nutrient mix, without supplementation (Invitrogen, Waltham, MA, cat. 11765054), 100 U/mL penicillin-streptomycin (Invitrogen, cat. 15140122), and 2.5% Matrigel (Corning Inc., Corning, NY, cat. 354248) for the first three passages. All PDCs were cultured in complete DMEM/F-12 media containing advanced DMEM/F-12 (Invitrogen, cat. 12634028), 4.9% defined fetal bovine serum, heat inactivated (HyClone Laboratories Inc., Logan, UT, cat. SH30070.03HI), 389 ng/mL hydrocortisone (Sigma-Aldrich, cat. H4001), 9.7 ng/mL human EGF recombinant protein (Invitrogen, cat. PHG0313), 23.4 microg/mL adenine (Sigma-Aldrich, cat. A2786), 97.3 U/mL penicillin-streptomycin (Invitrogen, cat. 15140122), 1.9 mM L-glutamine (Invitrogen, cat. 25030081), and 9.7 microM Y-27632 dihydrochloride (Tocris Bioscience, Bristol, United Kingdom, cat. 1254). The PDCs were cultured in complete DMEM/F12 media without 10 microM Y-27632 dihydrochloride for at least two passages prior to the screen. The established cell lines NCI-H1341 and […] were cultured in DMEM/F-12, HEPES (Invitrogen, cat. 11330032), 5% defined fetal bovine serum (HyClone Laboratories Inc., cat. SH30070.03), ITS premix universal culture supplement [insulin (5 microg/mL), transferrin (5 microg/mL), and selenious acid (5 ng/mL)] […]

[1] = curve of first compound, second compound 0.1 µM
[2] = curve of first compound, second compound 0.316 µM
[3] = curve of first compound, second compound 1 µM
[4] = curve of first compound, second compound 3.16 µM
[5] = curve of first compound, second compound 10 µM
[6] = second compound 0.1 µM, first compound 0.0316 µM
[7] = second compound 0.1 µM, first compound 0.1 µM
[8] = second compound 0.1 µM, first compound 0.316 µM
[9] = second compound 0.1 µM, first compound 1 µM
[10] = second compound 0.1 µM, first compound 3.16 µM
[11] = second compound 0.1 µM, first compound 10 µM
[12] = second compound 0.316 µM, first compound 0.0316 µM
[13] = second compound 0.316 µM, first compound 0.1 µM
[14] = second compound 0.316 µM, first compound 0.316 µM
[15] = second compound 0.316 µM, first compound 1 µM
[16] = second compound 0.316 µM, first compound 3.16 µM
[17] = second compound 0.316 µM, first compound 10 µM
[18] = second compound 1 µM, first compound 0.0316 µM
[19] = second compound 1 µM, first compound 0.1 µM
[20] = second compound 1 µM, first compound 0.316 µM
[21] = second compound 1 µM, first compound 1 µM
[22] = second compound 1 µM, first compound 3.16 µM
[23] = second compound 1 µM, first compound 10 µM
[24] = second compound 3.16 µM, first compound 0.0316 µM
[25] = second compound 3.16 µM, first compound 0.1 µM
[26] = second compound 3.16 µM, first compound 0.316 µM
[27] = second compound 3.16 µM, first compound 1 µM
[28] = second compound 3.16 µM, first compound 3.16 µM
[29] = second compound 3.16 µM, first compound 10 µM
[30] = second compound 10 µM, first compound 0.0316 µM
[31] = second compound 10 µM, first compound 0.1 µM
[32] = second compound 10 µM, first compound 0.316 µM
[33] = second compound 10 µM, first compound 1 µM
[34] = second compound 10 µM, first compound 3.16 µM
[35] = second compound 10 µM, first compound 10 µM
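Also: spheroids exposed to agents for seven days.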

Structure (SMILES)	IC50 [1] [µM]	IC50 [2] [µM]	IC50 [3] [µM]	IC50 [4] [µM]	IC50 [5] [µM]	viability, T/C [6] [%]	viability, T/C [7] [%]	viability, T/C [8] [%]	viability, T/C [9] [%]	viability, T/C [10] [%]	viability, T/C [11] [%]	viability, T/C [12] [%]	viability, T/C [13] [%]	viability, T/C [14] [%]	viability, T/C [15] [%]	viability, T/C [16] [%]	viability, T/C [17] [%]	viability, T/C [18] [%]	viability, T/C [19] [%]	viability, T/C [20] [%]	other results
O=C(c1cc(Cc2n[nH]c(=O)c3ccccc23)ccc1F)N1CCN(C(=O)C2CC2)CC1 + Cc1cncc(-c2nc(NCCc3c[nH]c4ccccc34)c3ncn(C(C)C)c3n2)c1	> 10	> 10	> 10	> 10	3.01	99.2	101	92.2	94	97.7	79.3	96.2	106	97.1	102	91.5	86.3	108	114	112	viability, T/C [21]: 103%; viability, T/C [22]: 96.9%; viability, T/C [23]: 91.3%; viability, T/C [24]: 102%; viability, T/C [25]: 109%; viability, T/C [26]: 112%; viability, T/C [27]: 114%; viability, T/C [28]: 101%; viability, T/C [29]: 91.3%; viability, T/C [30]: 61.2%; viability, T/C [31]: 61.1%; viability, T/C [32]: 55.1%; viability, T/C [33]: 55.5%; viability, T/C [34]: 49.3%; viability, T/C [35]: 44.7%
CCN(c1cc(-c2ccc(CN3CCOCC3)cc2)cc(C(=O)NCc2c(C)cc(C)[nH]c2=O)c1C)C1CCOCC1	–	–	–	–	–	–	–	–	–	–	–	–	–	–	–	–	–	–	–	–	viability, T/C (compound 0.00949 µM): 105% and 101% and 115%; viability, T/C (compound 0.03 µM): 104% and 95.7% and 106%; viability, T/C (compound 0.0949 µM): 114% and 88.5% and 110%; viability, T/C (compound 0.3 µM): 102% and 89.3% and 100%; viability, T/C (compound 0.949 µM): 108% and 98.8% and 96.9%; viability, T/C (compound 3 µM): 94.6% and 104% and 96.3%; IC50 (curve of compound): > 3 µM
COc1cccc2c1C(=O)c1c(O)c3c(c(O)c1C2=O)CC(O)(C(=O)CO)CC3OC1CC(N)C(O)C(C)O1 (configuration not stated) + Cc1cncc(-c2nc(NCCc3c[nH]c4ccccc34)c3ncn(C(C)C)c3n2)c1	< 0.0316	< 0.0316	< 0.0316	0.112	< 0.0316	50.2	38.3	26.9	7.22	3.85	14	50.4	37.9	27.2	6.87	3.35	12.9	51.4	44.9	27.6	viability, T/C [21]: 6.09%; viability, T/C [22]: 3.45%; viability, T/C [23]: 15.4%; viability, T/C [24]: 56.1%; viability, T/C [25]: 50%; viability, T/C [26]: 28.9%; viability, T/C [27]: 4.87%; viability, T/C [28]: 4.59%; viability, T/C [29]: 12.2%; viability, T/C [30]: 40%; viability, T/C [31]: 35.5%; viability, T/C [32]: 21.5%; viability, T/C [33]: 2.46%; viability, T/C [34]: 5.69%; viability, T/C [35]: 7.61%
